This is an account of results in publication PMC12818745 (ACS Chemical Neuroscience, 2025).

One experiment addresses T1, Aβ42 aggregation (Homo sapiens, UniProt P05067).
T1 construct: expressed in transfected cells; host or cells: E. coli BL21 (DE3), pET vector
Put plainly: Thioflavin S assay of Aβ42 aggregation in E. coli cells overexpressing Aβ42. It counts as cell-based, Escherichia coli. The settings on record: read-out: Aβ42 inhibition %. The method, then:
The antiaggregating profiles of both series A and B were evaluated using a fluorescence Thioflavin S (ThS) assay in cellulo, which monitors ThS fluorescence in the presence of β-sheet-rich structures, such as Aβ and tau protein aggregates. This method, based on recombinant Escherichia coli (E. coli) bacteria overexpressing insoluble aggregates, offers a simple and cost-effective approach to model aggregation processes in mammalian systems and has been validated for use in drug discovery studies. , Compounds were tested at a screening concentration of 50 μM for their ability to inhibit Aβ42 aggregation. The results, summarized in Table , reveal distinct antiaggregating profiles between series A and B, which are once again influenced by their structural differences.
42 Amino acid Aβ42 was cloned and overexpressed in E. coli BL21 (DE3) competent cells using the pET vector harboring the DNA sequence of Aβ42. Due to the addition of the initiation codon ATG preceding genes, the resulting overexpressed peptide contained an additional methionine residue at its N-terminus. For the preparation of overnight cultures, a colony of BL21 (DE3) cells carrying the plasmid for expression was inoculated in 10 mL of M9 minimal medium supplemented with 50 μg mL^–1 kanamycin at 37 °C. Subsequently, a 1:500 dilution of the overnight culture was added to fresh M9 minimal medium containing 50 μg mL^–1 kanamycin and 25 μM ThS. The bacterial culture was then incubated at 37 °C with agitation at 250 rpm. Upon reaching an OD600 of 0.6, 980 μL of the culture was transferred into 1.5 mL Eppendorf tubes, each containing 10 μL of the compound to be tested dissolved in DMSO and 10 μL of 100 mM isopropyl 1-thio-β-D-galactopyranoside (IPTG) or, alternatively, 10 μL of water for the noninduced controls. The final compound concentration was adjusted to […]. The samples were allowed to grow overnight at 37 °C with agitation at 1400 rpm using a Thermomixer (Eppendorf). Negative controls, representing maximum amyloid presence, utilized free DMSO.
ThS (T1892) and all other chemical reagents were purchased from Sigma (St. Louis, MO). Stock solutions of ThS (250 μM) were prepared using doubly distilled water purified via a Milli-Q system (Millipore). For the fluorescence assay, ThS spectra were recorded utilizing an AmincoBowman series 2 luminescence spectrophotometer (Aminco-Bowman AB2, SLM Aminco, Rochester, NY) within the range of 460 to 600 nm at a temperature of 25 °C. The excitation wavelength employed was 445 nm, with slit widths set at 4 nm. The emission at 485 nm, corresponding to the ThS peak observed in the presence of amyloids, was recorded. To standardize ThS fluorescence relative to bacterial concentration in both in vitro and cell-based assays, the OD600 was determined using a Shimadzu UV-2401 PC UV–vis spectrophotometer. Fluorescence normalization was executed by setting the ThS fluorescence of bacterial cells expressing the peptide or protein in the absence of the drug as 100%, while that of bacterial cells not expressing the peptide or protein was established as 0%.

Experiment [1] addresses eeAChE (Electrophorus electricus AChE) (Electrophorus electricus, UniProt O42275). Put plainly: Cholinesterase inhibition assay (modified Ellman's method), eeAChE. The format is biochemical. The settings on record: mean ± SEM, n = 3; n.a = nonactive; IC50 determined only if inhibition higher than 50% at 20 μM. The text has this: Compound series A and B were initially screened for their cholinesterase activity against eeAChE (Electrophorus electricus AChE) and eqBChE (equine serum butyrylcholinesterase), using an adaptation of the Ellman’s method. […]. […] Similarly, replacing the terminal triple bond in 7l with a nitrile group reduced its activity, while replacing the O-propargyl group with an N,N-dipropargyl group in 10 enhanced the inhibition of both enzymes, particularly BChE (Table ). The installation of an additional aryl ring in 7o further improved AChE inhibition, slightly increasing selectivity toward this enzyme. […]. […]. […]. The inhibitory activity of the synthesized compounds toward eeAChE and eqBChE was evaluated spectrophotometrically through a 96-well microplate modified Ellman’s method. The solutions of both enzymes were prepared as 0.025 U/mL in phosphate buffer at pH 7, from stock solutions of 5.05 U/mL and 7.50 U/mL, respectively. The stock solutions for the target compounds (0.1 M) were prepared in dimethyl sulfoxide (DMSO). […] The reaction mixture was prepared with 100 μL of the enzyme (eeAChE or eqBChE) and 50 μL of the test compound (or DMSO/water, not exceeding 0.2% of DMSO in the wells; i.e blank samples). After 5 min of the preincubation period at 37 °C, 50 μL of ATChI or BTChI and 50 μL of DTNB were added to each well, thus initiating the enzymatic reaction. The absorbance values were measured at 415 nm, for a total of 7.5 min, at every 2.5 min, using a microplate reader (Synergy multimode reader; BioTek). […]. All experiments were performed in triplicate.
(Ellman's reagent forms a yellow product with free thiols.)

Each structure is given as a SMILES string.

By inhibition is commonly meant the change of the read-out against control, counted positive when it falls. In general, IC50 refers to the concentration that gives 50% inhibition.

T1 sequence (P05067 672-713): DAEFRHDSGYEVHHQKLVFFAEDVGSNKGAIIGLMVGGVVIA
eeAChE (Electrophorus electricus AChE), sequence (O42275 24-633): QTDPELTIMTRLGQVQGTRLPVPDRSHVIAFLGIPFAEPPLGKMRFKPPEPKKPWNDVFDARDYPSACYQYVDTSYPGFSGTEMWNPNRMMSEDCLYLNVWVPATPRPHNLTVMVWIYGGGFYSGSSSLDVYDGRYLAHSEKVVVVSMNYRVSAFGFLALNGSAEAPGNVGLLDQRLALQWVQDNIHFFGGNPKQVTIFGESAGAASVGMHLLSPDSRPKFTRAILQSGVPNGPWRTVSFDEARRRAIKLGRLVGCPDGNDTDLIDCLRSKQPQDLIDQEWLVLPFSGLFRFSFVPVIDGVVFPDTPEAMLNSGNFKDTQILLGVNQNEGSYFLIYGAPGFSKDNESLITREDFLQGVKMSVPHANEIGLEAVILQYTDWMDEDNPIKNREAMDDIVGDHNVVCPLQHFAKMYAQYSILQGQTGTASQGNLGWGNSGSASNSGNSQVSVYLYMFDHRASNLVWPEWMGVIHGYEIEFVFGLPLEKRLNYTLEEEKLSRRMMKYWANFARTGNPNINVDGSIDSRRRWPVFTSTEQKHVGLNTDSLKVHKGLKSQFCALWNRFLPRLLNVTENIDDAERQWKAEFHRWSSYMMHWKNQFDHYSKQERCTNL

On to `COc1ccc2c(c1)-c1cc3oc4c(OC)c(OC)ccc4c(=O)c3cc1CO2` [Compound 11n, 2,11,12-Trimethoxy-6H,8H-chromeno[3,4-b]xanthen-8-one], for which the inhibition at 50 µM on Aβ42 aggregation is 34 ± 4%. Take `Cc1ccc(C#CCOc2ccccc2/C=C/c2cc(=O)c3ccccc3o2)cc1` [Compound 7o, (E)-2-(2-{[3-(4-methylphenyl)prop-2-yn-1-yl]oxy}styryl)-4H-chromen-4-one]: the concentration for half-maximal inhibition (IC50) in experiment [1] came to 2900 ± 500 nM. Besides, at Aβ42 aggregation, the inhibition at 50 µM was found to be 37 ± 2%. On to `C#CCOc1ccc(OC)cc1/C=C/c1cc(=O)c2c(OC)cc(OC)cc2o1` [Compound 7s, (E)-5,7-Dimethoxy-2-[5-methoxy-2-(prop-2-yn-1-yloxy)styryl]-4H-chromen-4-one], for which the inhibition at 50 µM at Aβ42 aggregation worked out at 50 ± 1.6%.

Take `C#CCOc1ccc(OC)cc1/C=C/c1cc(=O)c2ccc(OC)c(OC)c2o1` [Compound 7r]: the inhibition at 50 µM at Aβ42 aggregation worked out at 40 ± 5.6%. As to `C#CCOc1ccccc1/C=C/c1cc(=O)c2ccc(OC)c(OC)c2o1` [Compound 7d, (E)-7,8-Dimethoxy-2-[2-(prop-2-yn-1-yloxy)styryl]-4H-chromen-4-one], in experiment [1], the IC50 was found to be 2400 ± 400 nM. The inhibition at 50 µM at Aβ42 aggregation is 28 ± 1.7%. The corresponding values for `O=c1c2ccccc2oc2cc3c(cc12)COc1ccccc1-3` [Compound 11a, 6H,8H-Chromeno[3,4-b]xanthen-8-one] are 2100 ± 200 nM and 15 ± 4.6%.

Take `C#CCOc1ccc(OC)cc1/C=C/c1cc(=O)c2ccc(OC)cc2o1` [Compound 7p, (E)-7-Methoxy-2-[5-methoxy-2-(prop-2-yn-1-yloxy)styryl]-4H-chromen-4-one]: the inhibition at 50 µM on Aβ42 aggregation turned out to be 11 ± 1.5%. Same read-out and setting: under `C#CCOc1ccc2ccccc2c1/C=C/c1cc(=O)c2ccccc2o1` [Compound 8a] stands 47 ± 3.9%; under `O=c1c2ccccc2oc2cc3c(cc12)COc1ccc2ccccc2c1-3` [Compound 12a], 43 ± 3.9%. Take `O=c1c2ccccc2oc2cc3c(cc12)COc1ccc(Br)cc1-3` [Compound 11g, 2-Bromo-6H,8H-chromeno[3,4-b]xanthen-8-one]: the inhibition at 50 µM on Aβ42 aggregation is 36 ± 4.8%.

Turning to `C#CCOc1ccc(OC(F)(F)F)cc1/C=C/c1cc(=O)c2ccccc2o1` [Compound 7h, (E)-2-[2-(Prop-2-yn-1-yloxy)-5-(trifluoromethoxy)styryl]-4H-chromen-4-one], the inhibition at 50 µM at Aβ42 aggregation came out at 11 ± 2%. For `C#CCOc1ccc(Cl)cc1/C=C/c1cc(=O)c2ccc(OC)cc2o1` [Compound 7v, (E)-2-[5-Chloro-2-(prop-2-yn-1-yloxy)styryl]-7-methoxy-4H-chromen-4-one], the inhibition at 50 µM on Aβ42 aggregation was determined as 17 ± 2%. As for `COc1ccc2c(=O)c3cc4c(cc3oc2c1)-c1cc(OC(F)(F)F)ccc1OC4` [Compound 11p, 11-Methoxy-2-(trifluoromethoxy)-6H,8H-chromeno[3,4-b]xanthen-8-one], the inhibition at 50 µM at Aβ42 aggregation is 29 ± 7.6%.

Regarding `C#CCOc1ccc(F)cc1/C=C/c1cc(=O)c2ccccc2o1` [Compound 7i, (E)-2-[5-Fluoro-2-(prop-2-yn-1-yloxy)styryl]-4H-chromen-4-one], the inhibition at 50 µM at Aβ42 aggregation is 22 ± 4.8%. For the molecule `C#CCOc1ccc(Cl)cc1/C=C/c1cc(=O)c2ccccc2o1` [Compound 7j, (E)-2-[5-Chloro-2-(prop-2-yn-1-yloxy)styryl]-4H-chromen-4-one], on Aβ42 aggregation, the inhibition at 50 µM worked out at 11 ± 2.3%. For `C#CCOc1c(Br)cc(Cl)cc1/C=C/c1cc(=O)c2ccc(OC)cc2o1` [Compound 7w, (E)-2-[3-Bromo-5-chloro-2-(prop-2-yn-1-yloxy)styryl]-7-methoxy-4H-chromen-4-one], the inhibition at 50 µM on Aβ42 aggregation was 35 ± 3%. Same read-out and setting: under `C#CCOc1ccc(OC(F)(F)F)cc1/C=C/c1cc(=O)c2ccc(OC)cc2o1` [Compound 7t, (E)-7-Methoxy-2-[2-(prop-2-yn-1-yloxy)-5-(trifluoromethoxy)styryl]-4H-chromen-4-one] stands 20 ± 2.3%. On the same count and under the same terms, under `C#CCOc1c(Br)cc(Cl)cc1/C=C/c1cc(=O)c2ccccc2o1` [Compound 7k, (E)-2-[3-Bromo-5-chloro-2-(prop-2-yn-1-yloxy)styryl]-4H-chromen-4-one] stands 24 ± 3%; under `O=c1cc(/C=C/c2ccccc2OCC#Cc2ccccc2)oc2ccccc12` [Compound 7m, (E)-2-{2-[(3-Phenylprop-2-yn-1-yl)oxy]styryl}-4H-chromen-4-one], 28 ± 3.8%. Still for that read-out and setting: under `O=c1c2ccccc2oc2cc3c(cc12)COc1ccc(Cl)cc1-3` [Compound 11j, 2-Chloro-6H,8H-chromeno[3,4-b]xanthen-8-one] stands 45 ± 7.4%; under `C#CCOc1ccc(OC)cc1/C=C/c1cc(=O)c2ccccc2o1` [Compound 7f, (E)-2-[5-Methoxy-2-(prop-2-yn-1-yloxy)styryl]-4H-chromen-4-one], 15 ± 2.7%. As to `C#CCOc1ccccc1/C=C/c1cc(=O)c2ccc(OC)cc2o1` [Compound 7b, (E)-7-Methoxy-2-[2-(prop-2-yn-1-yloxy)styryl]-4H-chromen-4-one], at Aβ42 aggregation, the inhibition at 50 µM was found to be 23 ± 1.8%.

For `C#CCOc1ccc(Br)cc1/C=C/c1cc(=O)c2ccccc2o1` [Compound 7g, (E)-2-[5-Bromo-2-(prop-2-yn-1-yloxy)styryl]-4H-chromen-4-one], the inhibition at 50 µM on Aβ42 aggregation is 25 ± 4.6%. On the same count and under the same terms, in the case of `COc1cccc2oc3cc4c(cc3c(=O)c12)COc1ccccc1-4` [Compound 11c, 9-Methoxy-6H,8H-chromeno[3,4-b]xanthen-8-one] it was 34 ± 4.4%; in that of `C#CCOc1ccccc1/C=C/c1cc(=O)c2c(OC)cc(OC)cc2o1` [Compound 7e, (E)-5,7-Dimethoxy-2-[2-(prop-2-yn-1-yloxy)styryl]-4H-chromen-4-one], 24 ± 1.7%. In the case of `C#CCOc1ccccc1/C=C/c1cc(=O)c2c(OC)cccc2o1` [Compound 7c, (E)-5-Methoxy-2-[2-(prop-2-yn-1-yloxy)styryl]-4H-chromen-4-one], the inhibition at 50 µM on Aβ42 aggregation worked out at 33 ± 2.2%. As for `COc1ccc(C#CCOc2ccccc2/C=C/c2cc(=O)c3ccccc3o2)cc1` [Compound 7n, (E)-2-(2-{[3-(4-Methoxyphenyl)prop-2-yn-1-yl]oxy}styryl)-4H-chromen-4-one], the inhibition at 50 µM at Aβ42 aggregation was found to be 34 ± 3.3%. Still for that read-out and setting: under `N#CCOc1ccccc1/C=C/c1cc(=O)c2ccccc2o1` [Compound 7l, (E)-2-{2-[2-(4-oxo-4H-chromen-2-yl)vinyl]phenoxy}acetonitrile] stands 34 ± 5.2%. As for `COc1ccc2c(c1)-c1cc3oc4cc(OC)cc(OC)c4c(=O)c3cc1CO2` [Compound 11o, 2,9,11-Trimethoxy-6H,8H-chromeno[3,4-b]xanthen-8-one], the inhibition at 50 µM at Aβ42 aggregation turned out to be 33 ± 4.3%. With `C#CCOc1ccc(F)cc1/C=C/c1cc(=O)c2ccc(OC)cc2o1` [Compound 7u, (E)-2-[5-Fluoro-2-(prop-2-yn-1-yloxy)styryl]-7-methoxy-4H-chromen-4-one], the inhibition at 50 µM at Aβ42 aggregation was found to be 28 ± 3.5%. The same measure, in the same setting: under `C#CCOc1ccc2ccccc2c1/C=C/c1cc(=O)c2ccc(OC)cc2o1` [Compound 8b] stands 32 ± 4.3%.
